Legend:
crabgrass = assay: Test B pre/postemergence crabgrass; assay type: in vivo, Digitaria sanguinalis
In short: (§1)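 Response is a visual 0-to-10 score relative to untreated plants, where 0 means no effect and 10 means complete control, taken twelve to sixteen days after application. Treatments went onto soil at planting and onto foliage of 1- to 4-leaf plants, using a surfactant-containing non-phytotoxic solvent.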

giant foxtail = assay: Test B pre/postemergence giant foxtail; assay type: in vivo, Setaria faberii
In short: as §1

wheat = assay: Test B pre/postemergence wheat; assay type: in vivo, Triticum aestivum; conditions: for Wheat plant response rating (0 to 10 scale): 0 is no effect
In short: as §1

duck salad = assay: Test B flood test duck salad; assay type: in vivo, Heteranthera limosa
In short: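 Plants were grown to the 2-leaf stage before treatment with test chemical, then held in a greenhouse for twelve to sixteen days. Injury was visually rated against untreated controls on a 0–10 scale, where 0 is no effect and 10 is complete control.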

[1] = Postemergence, Rate 62 g/ha, scale 0 to 10, 0 is no effect, 10 is complete control
[2] = Postemergence, Rate 125 g/ha, scale of 0 to 10 where 0 is no effect and 10 is complete control
[3] = Postemergence, Rate 250 g/ha, scale 0 to 10, 0 no effect, 10 complete control
[4] = Preemergence, Rate 62 g/ha, scale 0 to 10 (0 no effect, 10 complete control)
[5] = Preemergence, Rate 125 g/ha, scale 0 to 10 (0 no effect, 10 complete control)
[6] = Preemergence, Rate 250 g/ha, scale of 0 to 10 where 0 is no effect and 10 is complete control
[7] = Preemergence, Rate 500 g/ha, scale 0 (no effect) to 10 (complete control)
[8] = Rate 500 g/ha, Postemergence, scale 0 to 10, 0 no effect, 10 complete control
[9] = Rate 250 g/ha, Postemergence, scale 0 to 10, 0 is no effect, 10 is complete control
[10] = Postemergence (flood test species), Rate 125 g/ha, scale of 0 to 10 where 0 is no effect and 10 is complete control
[11] = Rate 500 g/ha, listed under Postemergence (flood test species), scale 0 to 10, 0 no effect, 10 complete control
[12] = flood test, listed under Postemergence, Rate 250 g/ha, scale 0 to 10, 0 no effect, 10 complete control
[13] = Postemergence, Rate 1000 g/ha, scale 0 to 10 (0 no effect, 10 complete control)
[14] = Rate 62 g/ha, Postemergence, scale of 0 to 10 where 0 is no effect and 10 is complete control
[15] = Rate 1000 g/ha, Preemergence, scale 0 to 10 (0 no effect, 10 complete control)
[16] = Preemergence, Rate 125 g/ha, 10 is complete control
[17] = Rate 62 g/ha, Postemergence section, flood test species, scale of 0 to 10 where 0 is no effect and 10 is complete control
[18] = Preemergence, Rate 500 g/ha, scale 0 to 10 (0 no effect, 10 complete control)
[19] = Preemergence, Rate 125 g/ha, 0 is no effect, 10 is complete control
[20] = Preemergence, Rate 250 g/ha, scale 0 to 10, 0 is no effect, 10 is complete control
[21] = Rate 500 g/ha, Postemergence, scale 0 to 10

CCN(CC)C(=O)n1oc(=O)n(-c2cccc3c2CCCC3)c1=O [Compound 89]
2: Crabgrass plant response rating (crabgrass; [7]) | Crabgrass plant response rating (crabgrass; [8]) | Giant foxtail plant response rating (giant foxtail; [7]) | Giant foxtail plant response rating (giant foxtail; [8])
0: Crabgrass plant response rating (crabgrass; [1]) | Crabgrass plant response rating (crabgrass; [2]) | Crabgrass plant response rating (crabgrass; [3]) | Crabgrass plant response rating (crabgrass; [4]) | Plant response rating, Crabgrass (crabgrass; [5]) | Plant response rating, Crabgrass (crabgrass; [6]) | Giant foxtail plant response rating (giant foxtail; [1]) | Giant foxtail plant response rating (giant foxtail; [2]) | Giant foxtail plant response rating (giant foxtail; [3]) | Giant foxtail plant response rating (giant foxtail; [4]) | Plant response rating, Giant foxtail (giant foxtail; [5]) | Plant response rating, Giant foxtail (giant foxtail; [6]) | Wheat plant response rating (wheat; [1]) | Wheat plant response rating (wheat; [2]) | Wheat plant response rating (wheat; [4]) | Plant response rating, Wheat (wheat; [5]) | Plant response rating, Wheat (wheat; [6]) | Wheat plant response rating (wheat; [7]) | Plant response rating, Wheat (wheat; [9]) | Wheat plant response rating (wheat; [8]) | Ducksalad plant response rating (duck salad; [10]) | Ducksalad plant response rating (duck salad; [1]) | Ducksalad plant response rating (duck salad; [11]) | Ducksalad plant response rating (duck salad; [12])

CC(C)N(C(=O)n1oc(=O)n(C2CCCCC2C(F)(F)F)c1=O)c1ccc(F)cc1 (centres unmarked) [Compound 99]
7: Giant foxtail plant response rating (giant foxtail; [8])
10: Plant response rating, Crabgrass (crabgrass; [6]) | Crabgrass plant response rating (crabgrass; [7]) | Plant response rating, Crabgrass (crabgrass; [15]) | Plant response rating, Giant foxtail (giant foxtail; [5]) | Plant response rating, Giant foxtail (giant foxtail; [6]) | Giant foxtail plant response rating (giant foxtail; [7]) | Plant response rating, Giant foxtail (giant foxtail; [15])
2: Crabgrass plant response rating (crabgrass; [2]) | Giant foxtail plant response rating (giant foxtail; [3]) | Giant foxtail plant response rating (giant foxtail; [13]) | Wheat plant response rating (wheat; [13]) | Plant response rating, Wheat (wheat; [6]) | Wheat plant response rating (wheat; [7]) | Plant response rating, Wheat (wheat; [15]) | Ducksalad plant response rating (duck salad; [11]) | Ducksalad plant response rating (duck salad; [12])
8: Crabgrass plant response rating (crabgrass; [13]) | Plant response rating, Crabgrass (crabgrass; [5]) | Crabgrass plant response rating (crabgrass; [8])
3: Ducksalad plant response rating (duck salad; [13])
4: Crabgrass plant response rating (crabgrass; [3])
0: Crabgrass plant response rating (crabgrass; [14]) | Giant foxtail plant response rating (giant foxtail; [2]) | Giant foxtail plant response rating (giant foxtail; [14]) | Wheat plant response rating (wheat; [2]) | Wheat plant response rating (wheat; [4]) | Wheat plant response rating (0 to 10 scale) (wheat; [16]) | Wheat plant response rating (wheat; [14]) | Plant response rating, Wheat (wheat; [9]) | Wheat plant response rating (wheat; [8]) | Ducksalad plant response rating (duck salad; [10]) | Ducksalad plant response rating (duck salad; [17])
5: Crabgrass plant response rating (crabgrass; [4])

CCc1noc(CC)c1-n1c(=O)on(C(=O)N(c2ccc(F)cc2)C(C)C)c1=O [Compound 102]
2: Giant foxtail plant response rating (giant foxtail; [4]) | Giant foxtail plant response rating (giant foxtail; [8])
9: Plant response rating, Giant foxtail (giant foxtail; [6])
0: Crabgrass plant response rating (crabgrass; [2]) | Crabgrass plant response rating (crabgrass; [3]) | Crabgrass plant response rating (crabgrass; [4]) | Plant response rating, Crabgrass (crabgrass; [5]) | Plant response rating, Crabgrass (crabgrass; [6]) | Crabgrass plant response rating (crabgrass; [14]) | Giant foxtail plant response rating (giant foxtail; [2]) | Giant foxtail plant response rating (giant foxtail; [3]) | Giant foxtail plant response rating (giant foxtail; [14]) | Wheat plant response rating (wheat; [2]) | Wheat plant response rating (wheat; [4]) | Wheat plant response rating (0 to 10 scale) (wheat; [16]) | Plant response rating, Wheat (wheat; [6]) | Wheat plant response rating (wheat; [14]) | Plant response rating, Wheat (wheat; [9]) | Wheat plant response rating (wheat; [8]) | Ducksalad plant response rating (duck salad; [10]) | Ducksalad plant response rating (duck salad; [17]) | Ducksalad plant response rating (duck salad; [11]) | Ducksalad plant response rating (duck salad; [12])
5: Crabgrass plant response rating (crabgrass; [8])
4: Plant response rating, Giant foxtail (giant foxtail; [5])

Cc1nn(C)c(C)c1-n1c(=O)on(C(=O)N(c2ccccc2)C(C)C)c1=O [Compound 120]
4: Wheat plant response rating (wheat; [8])
6: Crabgrass plant response rating (crabgrass; [4]) | Plant response rating, Crabgrass (crabgrass; [5]) | Giant foxtail plant response rating (giant foxtail; [2]) | Wheat plant response rating (wheat; [18])
9: Crabgrass plant response rating (crabgrass; [3]) | Plant response rating, Crabgrass (crabgrass; [6]) | Crabgrass plant response rating (crabgrass; [18]) | Crabgrass plant response rating (crabgrass; [8]) | Plant response rating, Giant foxtail (giant foxtail; [5]) | Plant response rating, Giant foxtail (giant foxtail; [6])
10: Giant foxtail plant response rating (giant foxtail; [18])
5: Crabgrass plant response rating (crabgrass; [14])
8: Giant foxtail plant response rating (giant foxtail; [3]) | Giant foxtail plant response rating (giant foxtail; [4]) | Giant foxtail plant response rating (giant foxtail; [8])
2: Plant response rating, Wheat (wheat; [6])
0: Wheat plant response rating (wheat; [2]) | Wheat plant response rating (wheat; [4]) | Wheat plant response rating (0 to 10 scale) (wheat; [16]) | Wheat plant response rating (wheat; [14]) | Plant response rating, Wheat (wheat; [9]) | Ducksalad plant response rating (duck salad; [10]) | Ducksalad plant response rating (duck salad; [17]) | Ducksalad plant response rating (duck salad; [11]) | Ducksalad plant response rating (duck salad; [12])
7: Crabgrass plant response rating (crabgrass; [2])
3: Giant foxtail plant response rating (giant foxtail; [14])

Cc1cnn(C)c1-n1c(=O)on(C(=O)N(c2ccc(F)cc2)C(C)C)c1=O [Compound 125]
0: Crabgrass plant response rating (crabgrass; [2]) | Crabgrass plant response rating (crabgrass; [4]) | Crabgrass plant response rating (0 to 10 scale) (crabgrass; [19]) | Crabgrass plant response rating (crabgrass; [20]) | Crabgrass plant response rating (crabgrass; [18]) | Crabgrass plant response rating (crabgrass; [14]) | Plant response rating, Crabgrass (crabgrass; [9]) | Crabgrass plant response rating (crabgrass; [21]) | Giant foxtail plant response rating (giant foxtail; [2]) | Giant foxtail plant response rating (giant foxtail; [4]) | Giant foxtail plant response rating (0 to 10 scale) (giant foxtail; [19]) | Giant foxtail plant response rating (giant foxtail; [18]) | Giant foxtail plant response rating (giant foxtail; [14]) | Plant response rating, Giant foxtail (giant foxtail; [9]) | Giant foxtail plant response rating (giant foxtail; [21]) | Wheat plant response rating (wheat; [2]) | Wheat plant response rating (wheat; [4]) | Wheat plant response rating (0 to 10 scale) (wheat; [16]) | Wheat plant response rating (wheat; [20]) | Wheat plant response rating (wheat; [18]) | Wheat plant response rating (wheat; [14]) | Plant response rating, Wheat (wheat; [9]) | Wheat plant response rating (wheat; [21]) | Ducksalad plant response rating (duck salad; [10]) | Ducksalad plant response rating (duck salad; [17]) | Plant response rating, Ducksalad (duck salad; Rate 250 g/ha, Postemergence (flood test), scale 0 to 10, 0 is no effect, 10 is complete control) | Ducksalad plant response rating (duck salad; Rate 250 g/ha, headed Pre-emergence (flood test species), scale 0 to 10 (0 no effect, 10 complete control)) | Plant response rating, Ducksalad (duck salad; Rate 500 g/ha, headed Pre-emergence (flood test species), scale 0 to 10 (0 no effect, 10 complete control)) | Ducksalad plant response rating (duck salad; Rate 500 g/ha, listed under Postemergence (flood test species), scale 0 to 10) | Ducksalad plant response rating (duck salad; Rate 1000 g/ha, Pre-emergence (as headed), scale 0 to 10) | Ducksalad plant response rating (duck salad; Rate 2000 g/ha, Pre-emergence (as headed), scale 0 to 10)

Reference: patent US6737383B1, “Herbicidal oxadiazolidines” (priority 1999, dated 2004)
